Legend:
[1] = 101 kPa, Liquid; for viscosity: Concentric cylinders viscometry; for speed of sound: Pulse-echo method; for mass density: Vibrating tube method
[2] = xn = mol fraction of the nth substance listed; settings: 101 kPa, Liquid, x2 = 0; for viscosity: Concentric cylinders viscometry; for speed of sound: Pulse-echo method; for mass density: Vibrating tube method

CCCCCCCO [heptan-1-ol]
[1]
Settings	mass density [kg/m3]	speed of sound [m/s]	viscosity [mPa·s]
298.15 K	819.73	1328.3	5.869
303.15 K	816.183	1311.3	4.989
308.15 K	812.61	1294.5	4.27
313.15 K	809.011	1277.7	3.677
318.15 K	805.383	1261.1	3.186
323.15 K	801.731	1245.1	2.777

C1COCCO1 [1,4-dioxane] + CCCCCCCO
[2]
Settings	mass density [kg/m3]	speed of sound [m/s]	viscosity [mPa·s]
298.15 K	1027.99	1345.1	1.212
303.15 K	1022.33	1323.1	1.115
308.15 K	1016.66	1301.3	1.028
313.15 K	1010.98	1279.7	0.952
318.15 K	1005.28	1258.2	0.883
323.15 K	999.58	1237.4	0.822

C1COCCO1 [1,4-dioxane]
[1]
Settings	mass density [kg/m3]	speed of sound [m/s]	viscosity [mPa·s]
298.15 K	1027.99	1345.1	1.212
303.15 K	1022.33	1323.1	1.115
308.15 K	1016.66	1301.3	1.028
313.15 K	1010.98	1279.7	0.952
318.15 K	1005.28	1258.2	0.883
323.15 K	999.58	1237.4	0.822

— the NIST ThermoML archive (doi:10.1021/je400512u)
